Assay results reported in PubChem BioAssay AID1996.
≈ marks a conversion by molar mass, not a printed value.

Settings: buffer; pH 7.4; 200.0 µM

Compound	solubility kinetic [µg/mL]
C#Cc1ccc(CN2CCN(CCCc3ccccc3)C(CCO)C2)cc1 (stereo not drawn)	36.9 (≈ 102 µM)
CC(C(=O)NC(C)(C)C)N1C(=O)c2cccc3cccc(c23)C1=O (stereo not drawn)	40.2 (≈ 124 µM)
COCCN(CC(=O)Nc1cccc(C)c1C)C(=O)C1(c2ccc(Cl)cc2)CCC1	33.8 (≈ 78.8 µM)
N/C(COc1cccc(Cl)c1)=N\O	20.1 (≈ 100 µM)
COc1ccc(Cl)cc1NC(=O)C(C)N1CCc2ccccc21 (stereo not drawn)	1.1 (≈ 3.33 µM)
COc1ccccc1N1Cc2ccc(OC)c(OC)c2C1=O	> 44.9
Cc1ccccc1C(=O)N1CCC(C(=O)NC2CCCC2)CC1	38.6 (≈ 123 µM)
CCC(=O)Nc1ccc(S(=O)(=O)N2CCc3ccccc32)cc1	41.2 (≈ 125 µM)
O=c1[nH]c(O)c(C=Nc2cccc(F)c2)c(=O)[nH]1	4.8 (≈ 19.3 µM)
CCN1C(=O)Nc2cccc3cccc1c23	4.9 (≈ 23.1 µM)
Cc1ccc(N(CC2CO2)S(=O)(=O)c2ccccc2[N+](=O)[O-])cc1 (stereo not drawn)	36.7 (≈ 105 µM)
COc1ccc(Nc2nccc(-c3ccc([N+](=O)[O-])cc3)n2)cc1	0.4 (≈ 1.24 µM)
CN1c2ccsc2C(=O)/C(=C\Nc2cccc(C(F)(F)F)c2)S1(=O)=O	< 0.4
Cc1nc(N2CCC(C(N)=O)CC2)c2c(-c3cccs3)csc2n1	> 53.8
CCN(Cc1nc(-c2ccc(Cl)cc2)no1)CC1CCCO1 (stereo not drawn)	25.8 (≈ 80.2 µM)
O=C(Nc1ccccc1Cl)c1ccc([N+](=O)[O-])o1	39.4 (≈ 148 µM)
O=C(Nc1sc2c(c1C(=O)O)CCCCC2)c1cccnc1	> 47.5
Cc1ccc(C)c(NC(=O)Cn2cnc3c(oc4ccccc43)c2=O)c1	< 0.2
Cc1nc2ccccc2cc1C(=O)NCc1ccc(F)cc1	20.6 (≈ 70 µM)
CN(C(=O)COC(=O)C12CC3CC(CC(Cl)(C3)C1)C2)c1ccccc1	21.4 (≈ 59.1 µM)
CC1CCCN(C(=O)COC(=O)COc2ccc(Cl)cc2)C1 (stereo not drawn)	20.2 (≈ 62 µM)
Cc1cc(Br)cc2c1NC(=O)C2(O)CC(=O)c1ccco1 (stereo not drawn)	47.7 (≈ 136 µM)
Fc1ccc2nc(N3CCOCC3)sc2c1	> 35.7
O=C(CN1CCOCC1)Nc1nc(-c2ccccc2)cs1	42.2 (≈ 139 µM)

Compound	solubility kinetic [µg/mL]
CN(Cc1ccco1)S(=O)(=O)c1csc(C(N)=O)c1	44.7 (≈ 149 µM)
CCCCCC1CCC(c2ccc(/C(N)=N/O)cc2)CC1 (stereo not drawn)	< 0.3
O=C1CCCc2ccccc2N1Cc1cccc(F)c1	36.4 (≈ 135 µM)
CCCn1c(C(O)c2ccc(C)cc2)nc2ccccc21 (stereo not drawn)	15.9 (≈ 56.7 µM)
CNCc1ccccc1Sc1ccc(O)c(O)c1.O=C([O-])/C=C\C(=O)[O-]	31.5
CC(=O)N/C(=C\c1ccc2c(c1)OCO2)C(=O)NC(C(=O)O)c1ccccc1 (stereo not drawn)	> 57.4
CCOC(=O)c1ccc(NC(=O)CN2C(=O)CN(C(C)=O)C2=S)cc1	51.8 (≈ 143 µM)
COc1ccccc1CN(C)C(=O)c1ccc(S(=O)(=O)Nc2c(C)n(C)n(-c3ccccc3)c2=O)cc1	> 78.1
Cc1ccc(NC(=O)C(=O)c2ccc(C)cc2)cc1	0.7 (≈ 2.76 µM)
O=C1NC2(CCCCCC2)C(=O)N1Cc1ccccc1F	26 (≈ 89.6 µM)
Clc1cccc(N2CCN(c3ncnc4nc[nH]c34)CC2)c1	0.8 (≈ 2.54 µM)
CC(C)N(C(=O)COC(=O)c1ccc([N+](=O)[O-])cc1)c1ccccc1	1.1 (≈ 3.21 µM)
Cc1nn(C)cc1C(C)Nc1nc2nonc2nc1N1CCCCC1 (stereo not drawn)	> 51.4
CCCn1c(SCC(=O)N(C)C2CCS(=O)(=O)C2)nc2sc3c(c2c1=O)CCC3 (stereo not drawn)	> 68.3
CSc1cccc(NC(=O)COC(=O)c2ccccn2)c1	> 45.4
CC(=O)C(C(C)=O)C(c1ccccc1)c1nc2ccccc2[nH]c1=O (stereo not drawn)	0.9 (≈ 2.69 µM)
COC(=O)c1cc(C(=O)Nc2nc3ccccc3[nH]2)cc([N+](=O)[O-])c1	1.1 (≈ 3.23 µM)
c1ccc(CCNCC2COc3ccccc3O2)cc1 (stereo not drawn)	> 40.4
COc1ccccc1CNC(=O)CN1C(=O)NC2(CCCCCCC2)C1=O	> 56
CC1CCCCN1CCCNc1c(C=O)c(=O)[nH]c2ccccc12 (stereo not drawn)	46.7 (≈ 143 µM)
O=C(N/N=C/c1ccccn1)c1ccncc1	> 33.9
Cc1nc(N2CCCCCC2)c2ccccc2n1.Cl	> 41.7
COc1ccc(S(=O)(=O)N2CN3CCN(C3)C2)cc1OC	> 47
Cc1ccc(CN2CCC(N3CC(C)OC(C)C3)CC2)cc1.Cl (stereo not drawn)	31.8

Compound	solubility kinetic [µg/mL]
COc1ccc(-c2cc(-c3ccccc3)c(C#N)c(SCC(=O)O)n2)cc1	> 56.5
CCc1c(C)sc(NC(=O)/C=C/C(=O)O)c1C(N)=O	> 42.3
O=C(OCc1ccccc1)N1CCc2ccccc21	0.9 (≈ 3.55 µM)
CC(=O)c1cccc(NC(=O)C(NC(C)C)c2ccccc2)c1 (stereo not drawn)	> 46.6
Cl.NCCSC1CC(=O)N(c2ccc(F)cc2)C1=O (stereo not drawn)	29.5
O=C(Nc1nc2ccccc2s1)c1ccc(F)cc1	0.6 (≈ 2.2 µM)
COC(=O)c1c(C)oc(C)c1S(=O)(=O)Nc1ccccc1	> 46.4
CN1C(=O)c2ccccc2C(C(=O)O)C1c1cccc([N+](=O)[O-])c1 (stereo not drawn)	> 48.9
COc1ccc(-c2cc(C#N)nc(Cl)n2)cc1	1.3 (≈ 5.29 µM)
CSc1ncc(Cl)c(C(=O)Nc2cc(C)ccc2C)n1	< 0.2
O=C(Nc1cccc(C(F)(F)F)c1)OC1CN2CCC1CC2 (stereo not drawn)	> 47.1
COC(=O)c1cccc(NC(=O)CN2CCc3ccccc3C2)c1	39.6 (≈ 122 µM)
CCOC(=O)c1c(C)[nH]c(C(=O)COC(=O)c2cccnc2Cl)c1C	4.7 (≈ 12.9 µM)
Cc1ccccc1S(=O)(=O)NCC1CCCO1 (stereo not drawn)	27.1 (≈ 106 µM)
Oc1ccc(CN2CCN(c3ncccn3)CC2)cc1	34.2 (≈ 127 µM)
Cc1ccc(-c2csc(NC(=O)c3ccccc3Cl)c2C(=O)O)cc1	> 55.8
COC(=O)c1ccc(NC(=O)C[n+]2ccccc2)cc1.[Cl-]	> 46
Cc1nc(C)c(-c2csc(Nc3ncccc3C)n2)s1	< 0.2
O=C(OCC(=O)c1ccc(Cl)s1)c1cncc(Br)c1	17.5 (≈ 48.5 µM)
O=C(NCc1ccc(-n2cccc2)cc1)c1cccc(F)c1	1.7 (≈ 5.78 µM)
CCn1ncc(N2CCOCC2)c(Cl)c1=O	> 36.6
Cc1ccc(N=C2c3ccccc3C(=O)C2[N+](=O)[O-])cc1C (stereo not drawn)	8.8 (≈ 29.9 µM)
CCCn1c(SCC(=O)N2CC(=O)Nc3ccccc32)n[nH]c1=O	> 52.1
Cc1occc1C(=O)N1CCN(c2ccc([N+](=O)[O-])cc2)CC1	35.4 (≈ 112 µM)

Compound	solubility kinetic [µg/mL]
CCCn1c(SCCC(=O)O)nc2ccccc21	> 39.7
CS(=O)(=O)N(CC(=O)N1CCCC1)Cc1ccc(F)cc1	> 47.2
COc1cccc2c1OC1(CCN(C(C)C)CC1)N1N=C(c3cccnc3)CC21 (stereo not drawn)	> 58.9
CC(C)C1Cc2ccccc2-c2[nH]c(=S)[nH]c(=O)c21 (stereo not drawn)	27 (≈ 99.1 µM)
CCOc1ccc(NC(=O)CSc2nncn2C)cc1	> 43.9
COc1ccc(CCNC(=O)COC(=O)C2CC2)cc1OC	> 46.1
O=[N+]([O-])c1cc(C(F)(F)F)ccc1NCCc1ccncc1	1.6 (≈ 5.14 µM)
O=C1NC(c2ccc(F)cc2)Oc2ccccc21 (stereo not drawn)	6.4 (≈ 26.3 µM)
COC(=O)c1c(NC(=O)C2CC2)sc(C(=O)Nc2ccccc2)c1C	1.7 (≈ 4.74 µM)
CCCc1[nH]n(-c2nc3ccccc3s2)c(=O)c1C=NCCCOC	> 53.8
Nc1cc(N2CCCC2)c(Cl)cc1[N+](=O)[O-]	3 (≈ 12.4 µM)
O=[N+]([O-])c1ccc(CP(=O)(c2ccccc2)c2ccccc2)cc1	8 (≈ 23.7 µM)
CC1CC1C(=O)OCC(=O)NCc1ccccc1 (stereo not drawn)	> 37.1
COc1ccc(NC(=O)Cn2cc(C(=O)C3CC3)c3ccccc32)cc1	0.5 (≈ 1.44 µM)
Cc1ccccc1OCC(=O)NCCCNC(=O)c1cccnc1	> 49.1
CC1CCCN(CC(=O)Nc2ccc(S(=O)(=O)N3CCCC3)cc2)C1 (stereo not drawn)	> 54.8
CCOc1ccc(S(=O)(=O)N2CCN(C(=O)c3ccco3)CC2)cc1	> 54.7
C=Cc1ccc(Cn2c(C(=O)O)c(C=O)c3ccccc32)cc1	> 45.8
COC(=O)c1ccc(OC(=O)c2cccnc2SC)cc1	< 0.6
Cn1cnc2cc(NCc3ccccc3Cl)ccc21	34.7 (≈ 128 µM)
COc1ccc(C(=O)COc2ccc(C)cc2NC(C)=O)cc1	36.7 (≈ 117 µM)
CN(C)c1nc(=S)nc(NCc2ccccc2)[nH]1	> 39.2
COc1cc2c(cc1OC)C(c1cccc(Br)c1)NC(=O)C2 (stereo not drawn)	43 (≈ 119 µM)
Cc1nc(NC(=O)C2CCCCC2C(=O)O)sc1C (stereo not drawn)	40.5 (≈ 143 µM)

Compound	solubility kinetic [µg/mL]
CC(OC(=O)CCOc1ccccc1)C(=O)Nc1ccc(Cl)cn1 (stereo not drawn)	34.3 (≈ 98.3 µM)
Cc1cccc(C(=O)Nc2sc3c(c2C(=O)O)CCC3)c1	> 45.2
OC(CN1CC=C(c2ccccc2)CC1)c1ccccc1 (stereo not drawn)	40.8 (≈ 146 µM)
CCc1c(C)sc(NC(=O)c2cc(C(C)C)on2)c1C#N	3.4 (≈ 11.2 µM)
COc1ccc(Nc2ncnc3sccc23)cc1	36 (≈ 140 µM)
COc1ccc(OC)c(NC(=O)NCc2cccnc2)c1	> 43.1
CC12CC3CC(C)(C1)CC(C(O)CN1CCOCC1)(C3)C2.Cl (stereo not drawn)	> 49.5
Nc1nc(NCc2ccco2)nc(Nc2cccc(F)c2)c1[N+](=O)[O-]	0.3 (≈ 0.871 µM)
O=C(CN1C(=O)C2C3C=CC(C3)C2C1=O)OCC(=O)c1ccc(Cl)cc1 (stereo not drawn)	> 56.1
CC(C)(C)c1ccc(C(=O)Nc2ccc(NC(=O)C(=O)O)cc2)o1	44.5 (≈ 135 µM)
CCN(C(=O)COC(=O)c1cccnc1)c1cccc2ccccc12	> 50.2
CN(CC(=O)N1CCCC1)S(=O)(=O)c1ccc2ccccc2c1	> 49.9
O=C(Nc1ccc2oc(-c3ccccc3F)nc2c1)c1ccccc1F	< 0.4
COc1cc(C(=O)O)cc(NC(=O)c2ccco2)c1OC	> 43.7
Cc1cccc(Nc2nc(-c3ccc(F)cc3)cs2)n1	< 0.2
O=C(NC(=O)c1ccc(F)cc1F)Nc1ccc(Cl)cc1	2.8 (≈ 9.01 µM)
CCOC(=O)Cc1csc(NC(=O)COc2cccc(C)c2)n1	8.4 (≈ 25.1 µM)
CCOc1ccc(NC2=NCCCS2)cc1	> 35.4
Cc1cc(-c2onc(C)c2C(N)=O)no1	> 31.1
CC(=O)c1cccc(NC(=O)C2C3C=CC(C3)C2C(=O)O)c1 (stereo not drawn)	> 44.9
COc1ccc(/C=C/C(=O)OCC(=O)Nc2cccc(S(=O)(=O)NC3=NCCCCC3)c2)cc1	12.4 (≈ 25.5 µM)
O=C(CCn1c(=S)oc2ccccc21)NC1CCCCC1	1.6 (≈ 5.26 µM)
